Assay results published in US20080200376A1, “Compositions and Methods For the Treatment Of Obesity and Sexual Dysfunction” (priority 2004, published 2008).
Marks after values point to notes of the source that are not given here.

How the values were obtained:
hMC1bR [1] = target: T1, hMC1bR (Homo sapiens, UniProt Q01726); assay: Melanocortin receptor membrane binding assay (125I-NDP-alpha-MSH)
Experimental: (§1) The membrane binding assay was used to identify competitive inhibitors of ^125I-NDP-alpha-MSH binding to cloned human MCRs expressed in mouse L- or Chinese hamster ovary (CHO)-cells.
(§2) Cell lines expressing melanocortin receptors were grown in T-180 flasks containing selective medium of the composition: 1 L Dulbecco's modified Eagles Medium (DMEM) with 4.5 g […], 25 mM Hepes, without sodium pyruvate, (Gibco/BR1); 100 ml 10% heat-inactivated fetal bovine serum (Sigma); 10 mL 10,000 unit/mL penicillin & 10,000 μg/mL streptomycin (Gibco/BR1); 10 ml 200 mM L-glutamine (Gibco/BR1); 1 mg/mL geneticin (G418) (Gibco/BR1). The cells were grown at 37° C. with CO2 and humidity control until the desired cell density and cell number was obtained.
(§3) The medium was poured off and 10 mls/T-180 flask of enzyme-free dissociation media (Specialty Media Inc.) was added. The cells were incubated at 37° C. for 10 min or until cells sloughed off when flask was banged against hand.
(§4) The cells were harvested into 200 mL centrifuge tubes and spun at 1000 rpm, 4° C., for 10 min. The supernatant was discarded and the cells were resuspended in 5 mls/monolayer membrane preparation buffer having the composition: 10 mM Tris pH 7.2-7.4; 4 μg/mL Leupeptin (Sigma); 10 μM Phosphoramidon (Boehringer Mannheim); 40 μg/mL Bacitracin (Sigma); 5 μg/mL Aprotinin (Sigma); 10 mM Pefabloc (Boehringer Mannheim). The cells were homogenized with motor-driven dounce (Talboy setting 40), using 10 strokes and the homogenate centrifuged at 6,000 rpm, 4° C., for 15 min.
(§5) The pellets were resuspended in 0.2 mls/monolayer membrane prep buffer and aliquots were placed in tubes ([…]) and quick frozen in liquid nitrogen and then stored at −80° C.
(§6) Test compounds or unlabelled NDP-α-MSH was added to 100 μL of membrane binding buffer to a final concentration of 1 μM. The membrane binding buffer had the composition: 50 mM Tris pH 7.2; 2 mM CaCl2; 1 mM MgCl2; 5 mM KCl; 0.2% BSA; 4 μg/mL Leupeptin (SIGMA); 10 μM Phosphoramidon (Boehringer Mannheim); 40 μg/mL Bacitracin (SIGMA); 5 μg/mL Aprotinin (SIGMA); and 10 mM Pefabloc (Boehringer Mannheim). One hundred μL of membrane binding buffer containing 10-40 μg membrane protein was added, followed by […]. The resulting mixture was vortexed briefly and incubated for 90-120 min at room temp while shaking.
(§7) The mixture was filtered with Packard Microplate 196 filter apparatus using Packard Unifilter 96-well GF/C filter with 0.1% polyethyleneimine (Sigma). The filter was washed (5 times with a total of 10 mL per well) with room temperature of filter wash having the composition: 50 mM Tris-HCl pH 7.2 and 20 mM NaCl. […] The top was sealed and the radioactivity quantitated in a Packard Topcount Microplate Scintillation counter.

hMC4R [2] = target: T2, hMC4R (Homo sapiens, UniProt P32245); assay: as above
T2 construct: expressed in transfected cells; host or cells: CHO-, L- or other eukaryotic cells
T2 sequence (P32245 whole entry): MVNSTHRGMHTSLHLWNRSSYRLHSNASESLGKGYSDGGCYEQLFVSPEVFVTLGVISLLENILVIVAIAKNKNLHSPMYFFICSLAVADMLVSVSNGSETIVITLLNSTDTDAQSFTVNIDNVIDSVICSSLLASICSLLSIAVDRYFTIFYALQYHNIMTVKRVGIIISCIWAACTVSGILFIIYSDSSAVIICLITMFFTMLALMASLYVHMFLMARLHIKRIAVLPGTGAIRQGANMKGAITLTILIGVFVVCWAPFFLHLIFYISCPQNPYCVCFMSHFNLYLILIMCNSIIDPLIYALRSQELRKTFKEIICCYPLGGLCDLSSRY
Experimental: as §1, §2, §3, §4, §5, §6, §7

hMC5R [3] = target: T3, hMC5R (Homo sapiens, UniProt P33032); assay: as above
T3 construct: expressed in transfected cells; host or cells: CHO-, L- or other eukaryotic cells
T3 sequence (P33032 whole entry): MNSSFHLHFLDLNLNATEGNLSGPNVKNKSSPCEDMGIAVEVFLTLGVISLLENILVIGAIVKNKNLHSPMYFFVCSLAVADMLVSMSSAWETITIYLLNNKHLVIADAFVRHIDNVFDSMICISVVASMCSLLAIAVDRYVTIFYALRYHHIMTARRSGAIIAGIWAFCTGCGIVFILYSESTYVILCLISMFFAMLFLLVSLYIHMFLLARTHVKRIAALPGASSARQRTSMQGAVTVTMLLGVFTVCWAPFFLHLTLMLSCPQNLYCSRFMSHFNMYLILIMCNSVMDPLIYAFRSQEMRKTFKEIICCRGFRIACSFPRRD
Experimental: as §1, §2, §3, §4, §5, §6, §7

hMC3R [4] = target: T4, hMC3R (Homo sapiens, UniProt P41968); assay: as above
T4 construct: expressed in transfected cells; host or cells: CHO-, L- or other eukaryotic cells
T4 sequence (P41968 whole entry): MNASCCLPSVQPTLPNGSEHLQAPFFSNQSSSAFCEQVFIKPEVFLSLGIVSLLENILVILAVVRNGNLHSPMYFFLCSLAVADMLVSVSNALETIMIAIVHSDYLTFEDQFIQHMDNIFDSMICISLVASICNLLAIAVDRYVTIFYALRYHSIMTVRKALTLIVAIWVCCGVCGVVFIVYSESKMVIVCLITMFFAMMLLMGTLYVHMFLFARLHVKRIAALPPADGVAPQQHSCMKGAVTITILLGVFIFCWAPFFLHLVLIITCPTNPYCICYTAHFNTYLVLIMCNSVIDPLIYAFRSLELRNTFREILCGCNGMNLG
Experimental: The cells were grown at 37° C. with CO2 and humidity control until the desired cell density and cell number was obtained.

hMC1bR [5] = target: T1, hMC1bR; assay: cAMP functional assay (agonist); assay type: cell-based
Experimental: (§8) Cells (for example, CHO— or L-cells or other eukaryotic cells) expressing a human melanocortin receptor (see e.g. Yang-YK; Ollmann-MM; Wilson-BD; Dickinson-C; Yamada-T; Barsh-GS; Gantz-I; Mol-Endocrinol. 1997 March; 11(3): 274-80) were dissociated from tissue culture flasks by rinsing with Ca and Mg free phosphate buffered saline (14190-136, Life Technologies, Gaithersburg, Md.) and detached following 5 min incubation at 37° C. with enzyme free dissociation buffer (S-014-B, Specialty Media, Lavellette, N.J.). Cells were collected by centrifugation and resuspended in Earle's Balanced Salt Solution (14015-069, Life Technologies, Gaithersburg, Md.) with additions of 10 mM HEPES pH 7.5, 5 mM MgCl2, 1 mM glutamine and 1 mg/ml bovine serum albumin. Cells were counted and diluted to 1 to 5×10^6/mL. The phosphodiesterase inhibitor 3-isobutyl-1-methylxanthine was added to cells to 0.6 mM.
(§9) Agonist Assay: Test compounds were diluted in dimethylsulfoxide (DMSO) (10^−5 to 10^−10 M) and 0.1 volume of compound solution was added to 0.9 volumes of cell suspension; the final DMSO concentration was […]. After room temperature incubation for 45 min, cells were lysed by incubation at 100° C. for 5 min to release accumulated cAMP.
(§10) cAMP was measured in an aliquot of the cell lysate with the Amersham (Arlington Heights, Ill.)
(§11) cAMP detection assay (RPA556). The amount of cAMP production which resulted from an unknown compound was compared to that amount of cAMP produced in response to alpha-MSH which was defined as a 100% agonist. The EC50 is defined as the compound concentration which results in half maximal stimulation, when compared to its own maximal level of stimulation.

hMC2R = target: T5, hMC2R (Homo sapiens, UniProt Q01718); assay: cAMP functional assay (agonist); assay type: cell-based
T5 construct: expressed in transfected cells; host or cells: CHO-, L- or other eukaryotic cells
T5 sequence (Q01718 whole entry): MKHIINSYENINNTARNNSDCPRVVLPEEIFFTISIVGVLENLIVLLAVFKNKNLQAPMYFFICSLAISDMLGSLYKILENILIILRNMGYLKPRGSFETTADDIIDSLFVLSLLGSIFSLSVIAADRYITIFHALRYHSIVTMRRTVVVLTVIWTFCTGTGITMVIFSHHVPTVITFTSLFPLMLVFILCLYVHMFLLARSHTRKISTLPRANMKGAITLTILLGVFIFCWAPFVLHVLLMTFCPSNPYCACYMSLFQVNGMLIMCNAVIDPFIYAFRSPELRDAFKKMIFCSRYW
T5 sequence (Q8TCY5 whole entry partner): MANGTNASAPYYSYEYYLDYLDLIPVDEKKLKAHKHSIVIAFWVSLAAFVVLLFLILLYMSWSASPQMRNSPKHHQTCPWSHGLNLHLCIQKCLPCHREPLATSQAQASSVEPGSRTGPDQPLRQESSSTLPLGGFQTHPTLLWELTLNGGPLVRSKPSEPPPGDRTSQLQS
Experimental: as §8, §9, §10, §11

hMC4R [6] = target: T2, hMC4R; assay: cAMP functional assay (agonist); assay type: cell-based
Experimental: as §8, §9, §10, §11

hMC3R [7] = target: T4, hMC3R; assay: cAMP functional assay (agonist); assay type: cell-based
Experimental: as §8, §9, §10

hMC5R [8] = target: T3, hMC5R; assay: cAMP functional assay (agonist); assay type: cell-based
Experimental: as §8, §9, §10

ferrets [9] = assay: MC4R associated emesis in ferrets, Compound A and Compound B (Table 1); assay type: in vivo, ferret; conditions: Compound A 60 mg/kg orally; for % Emesis: ferrets; for # of Ferrets: ferrets with emesis/dosed
Experimental: (§12) Food intake (FI) was monitored at 1, 2, 4, and 24, hours after dosing. Body weight (BWT) was measured at the time of dosing and at 24 hours. Any incidence of emesis or abnormal behavior by subjects was recorded. Two studies were combined to generate the data.

ferrets [10] = assay: MC4R associated emesis in ferrets, Compound A and Compound F (Table 2); assay type: in vivo, ferret; conditions: Compound A (10 mg/kg); for % Emesis: ferrets; for # of Ferrets: ferrets with emesis/dosed
Experimental: FIG. 3. […] All food intake data were analyzed by two-tailed T-TEST.
as §12

T1 sequence (Q01726 whole entry): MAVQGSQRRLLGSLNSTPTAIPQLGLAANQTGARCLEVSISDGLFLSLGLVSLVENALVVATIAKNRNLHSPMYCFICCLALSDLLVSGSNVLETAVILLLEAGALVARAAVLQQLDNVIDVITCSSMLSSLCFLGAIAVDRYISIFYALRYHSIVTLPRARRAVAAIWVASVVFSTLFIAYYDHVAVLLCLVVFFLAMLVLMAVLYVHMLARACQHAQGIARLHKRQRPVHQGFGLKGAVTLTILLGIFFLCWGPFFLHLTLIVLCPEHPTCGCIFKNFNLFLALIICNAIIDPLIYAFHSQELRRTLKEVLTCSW

CC[C@H](NC(C)=O)c1cc(Cl)ccc1C1CCN(C(=O)[C@@H]2CN(C(C)(C)C)C[C@H]2c2ccc(F)cc2F)CC1 [Compound A]
IC50 (hMC1bR [1]): 5.6 µM | Selectivity Binding IC50 1R/4R (hMC1bR [1]; IC50 hMC1bR / IC50 hMC4R): 127.27 | IC50 (hMC4R [2]): 0.044 µM | IC50 (hMC5R [3]): 1.6 µM | IC50 (hMC3R [4]): 7.2 µM | EC50 (hMC1bR [5]): 1.7 µM | Selectivity cAMP EC50 1R/4R (hMC1bR [5]; EC50 hMC1bR / EC50 hMC4R): 121.43 | EC50 (hMC2R): > 10 µM | EC50 (hMC4R [6]): 0.014 µM | EC50 (hMC3R [7]): 0.92 µM | EC50 (hMC5R [8]): 1.4 µM | % Emesis (ferrets [9]; 1 hour): 31% | % Emesis (ferrets [9]; 2 hours): 8% | % Emesis (ferrets [9]; 4 hours): 69% | % Emesis (ferrets [9]; Total, 60 mg/kg): 77% | # of Ferrets (ferrets [9]; 1 hour): 4/13 | # of Ferrets (ferrets [9]; 2 hours): 1/13 | # of Ferrets (ferrets [9]; 4 hours): 9/13****** | # of Ferrets (ferrets [9]; Total): 10/13**** | % Emesis (ferrets [10]; 1 hour): 40% | % Emesis (ferrets [10]; 2 hours): 40% | % Emesis (ferrets [10]; 4 hours): 60% | % Emesis (ferrets [10]; total): 100% | # of Ferrets (ferrets [10]; 1 hour): 2/5** | # of Ferrets (ferrets [10]; 2 hours): 2/5 | # of Ferrets (ferrets [10]; 4 hours): 5/5*** | # of Ferrets (ferrets [10]; total): 5/5*****
